Laboratory results reported in patent publication US20250122191A1, “COMPOUNDS AS BCL-2 INHIBITORS” (Fochon Biosciences, Ltd, priority 2021, published 2025).

Experiments:
Toledo cells = assay: Cell proliferation assay (MTS), Toledo cells; assay type: cell-based; conditions: Homo sapiens, 72 h
Summary of the method: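 Toledo cells (RPMI-1640, 10% FBS) seeded at 30000 cells/well, rested 4 h, then exposed 72 h at 37 °C, 5% CO2 to compound at nine final concentrations, 1.5–10000 nM. Viability by MTS (2 h), absorbance at 490 nm. IC50 from the concentration-response.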

RS4;11-BCL-2 G101V cells = assay: Cell proliferation assay (MTS), RS4;11-BCL-2 G101V engineered cells; assay type: cell-based; conditions: Homo sapiens, 120 h, read-out: RS4, 11 BCL2-G101V IC50
Summary of the method: (§1)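 Cells were plated, allowed to settle 4 h (G101V, F104L) or 24 h (D103E, D103Y), and treated with serially diluted compound (10000 down to 1.5 nM). After 120 h or 72 h respectively at 37 °C, MTS was added for 2 h and absorbance at 490 nm gave IC50 values.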

RS4;11-BCL-2 F104L cells = assay: Cell proliferation assay (MTS), RS4;11-BCL-2 F104L engineered cells; assay type: cell-based; conditions: Homo sapiens, 120 h, read-out: RS4, 11 BCL2-F104L IC50
Summary of the method: as §1

RS4;11-BCL-2 D103E cells = assay: Cell proliferation assay (MTS), RS4;11-BCL-2 D103E engineered cells; assay type: cell-based; conditions: Homo sapiens, 72 h, read-out: RS4, 11 BCL2-D103E IC50
Summary of the method: as §1

RS4;11-BCL-2 D103Y cells = assay: Cell proliferation assay (MTS), RS4;11-BCL-2 D103Y engineered cells; assay type: cell-based; conditions: Homo sapiens, 72 h, read-out: RS4, 11 BCL2-D103Y IC50
From the text: MTS testing kit was purchased from Promega (Madison, WI, USA). The RPMI-1640, Fetal bovine serum and Penicillin-Streptomycin were purchased from BI (Biological Industries, Beit Haemek, Israel). Puromycin was purchased from Beyotime (shanghai, China). Dimethyl sulfoxide (DMSO) was purchased from Sigma (St. Louis., MO, USA). RS4;11-BCL-2 G101V (Cobioer Lot. #: CBD2021063013P4), RS4;11-BCL-2 D103E (Cobioer Lot. #: CBD2021063013P4), RS4;11-BCL-2 D103Y (Cobioer Lot. #: CBD2022012101P4) and RS4;11-BCL-2 F104L (Cobioer Lot. #: CBD2021063014P4) cells were cultured in RPMI1640 supplemented with 1 ug/mL puromycin, 100 U/mL Penicillin-Streptomycin and 10% FBS.
To investigate whether a compound is able to inhibit the activity of BCL-2 mutation in cells, a mechanism-based assay using engineered cell lines stably overexpressing BCL-2 mutation (RS4;11-BCL-2 G101V, RS4;11-BCL-2 D103E, RS4;11-BCL-2 D103Y, and RS4;11-BCL-2 F104L) was developed. In this assay, the inhibition of BCL-2 mutation was reflected by the inhibition of cell proliferation of engineered RS4;11 cells. Cells were plated into 96-well plates at optimized cell density (RS4;11-BCL-2 G101V: 5000 cells/well; RS4;11-BCL-2 D103E: 7500 cells/well; RS4;11-BCL-2 D103Y: 7500 cells/well; RS4;11-BCL-2 F104L: 5000 cells/well). Plates were incubated at 37° C., with 5% CO2 for 4 h (RS4;11-BCL-2 G101V, RS4;11-BCL-2 F104L) and 24 h (RS4;11-BCL-2 D103E, RS4;11-BCL-2 D103Y), respectively. Compounds were serially diluted and added to the plates with the final concentrations of 10000, 3333.3, 1111.1, 370.4, 123.5, 41.2, 13.7, 4.6 and 1.5 nM. Plates were incubated at 37° C., with 5% CO2 for 120 h (RS4; 11-BCL-2 G101V, RS4; 11-BCL-2 F104L) and 72 h (RS4;11-BCL-2 D103E, RS4;11-BCL-2 D103Y), respectively. 20 μl MTS was added into each well and the plates were incubated at 37° C., with 5% CO2 exactly for 2 h. The absorbance was measured by a microplate reader at 490 nm. IC50 values were calculated using GraphPad Prism 8.0 software.

[1] = Pharmacokinetics assay in rats; assay type: in vivo; conditions: rat, male Sprague-Dawley rats, po, 5 mg/kg, plasma
Procedure: The purpose of this study was to determine the pharmacokinetics of Examples in male Sprague-Dawley rats (Supplied by Beijing Vital River Laboratory Animal Technology Co., Ltd.) following a single intravenous bolus injection at 1 mg/kg and oral gavage (PO) administration at 5 mg/kg.
Animals in Group 1 were administered with Examples by single intravenous bolus injection at 1 mg/kg, which was formulated in 10% DMSO (Sigma, Batch #LPCOS181): 60% PEG400 (Sigma, Batch #MKCH6281): 30% water, pH 5-6 at 1 mg/mL as a solution. Animals in Group 2 were administered with Examples by single oral gavage (PO) administration at 5 mg/kg, which was formulated in 10% DMSO (Sigma, Batch #BCCD6641): 60% PEG400 (Sigma, Batch #MKCL4921): 30% water at 1 mg/mL as a solution. Blood samples were collected at 0.083, 0.25, 0.5, 1, 2, 4, 8, 12 and 24 hours post-dose. Concentrations of Examples in plasma were determined by LC/MS/MS (LC: Waters UPLC; MS: Triple Quad 6500 plus).

Compound	IC50 (Toledo cells) [nM]	IC50 (RS4;11-BCL-2 G101V cells) [nM]	IC50 (RS4;11-BCL-2 F104L cells) [nM]	IC50 (RS4;11-BCL-2 D103E cells) [nM]	IC50 (RS4;11-BCL-2 D103Y cells) [nM]	AUC(0-t) [1] [ng·h/mL]	half-life [1] [h]	Cmax ([1]; read-out: Cmax/C0) [ng/mL]
COc1cc(CN2CCN(C3CC4(CCN(c5ccc(C(=O)NS(=O)(=O)c6cnc(NC[C@H]7CC[C@](C)(O)CC7)c([N+](=O)[O-])c6)c(Oc6cnc7[nH]cc(F)c7c6)c5)CC4)C3)[C@H](c3ccccc3C(C)C)C2)cnc1C1CC1 [Example 255, 4-(2-((R)-4-((6-cyclopropyl-5-methoxypyridin-3-yl)methyl)-2-(2-isopropylphenyl)piperazin-1-yl)-7-azaspiro[3.5]nonan-7-yl)-2-((3-fluoro-1H-pyrrolo[2,3-b]pyridin-5-yl)oxy)-N-((6-((((1r,4r)-4-hydroxy-4-methylcyclohexyl)methyl)amino)-5-nitropyridin-3-yl)sulfonyl)benzamide]	1	1	3	3	1			
COc1nc2[nH]cc(F)c2cc1Oc1cc(N2CCC3(CC2)CC(N2CCN(Cc4ccc(OC(F)F)cc4)C[C@H]2c2ccccc2C(C)C)C3)ccc1C(=O)NS(=O)(=O)c1cnc(NC[C@H]2CC[C@](C)(O)CC2)c([N+](=O)[O-])c1 [Example 344, 4-(2-((R)-4-(4-(difluoromethoxy)benzyl)-2-(2-isopropylphenyl)piperazin-1-yl)-7-azaspiro[3.5]nonan-7-yl)-2-((3-fluoro-6-methoxy-1H-pyrrolo[2,3-b]pyridin-5-yl)oxy)-N-((6-((((1r,4r)-4-hydroxy-4-methylcyclohexyl)methyl)amino)-5-nitropyridin-3-yl)sulfonyl)benzamide]	1	1	1	1	10	5910	28.9	406
